Measured values from patent publication US7429238B2, “Systems and methods for the generation of crystalline polymorphs” (priority 2001, dated 2008).

Columns and labels:
[1] = following a single oral dose, average; cited from earlier work
[2] = rat, in vivo; cited from earlier work
[3] = Differential scanning calorimetry of the new carbamazepine polymorph; format: physicochemical; conditions: scan rate of 10° C./minute
[4] = Infrared of single crystals versus KBr pellets (phase transformation under pressure); format: physicochemical; conditions: KBr pellets produced at 10,000 psi vs infrared microscopy of single crystals
Source text: The corresponding peaks in the new polymorph are found at 3474, 3149, 1674, 1394, 773, and 765 cm^−1. […] Significant differences in the IR spectra of two different polymorphs provide a fast, reliable method of polymorph characterization despite the fact that a hydrogen-bonded dimer is observed in the crystal structure of both polymorphs. […] Therefore, it is contemplated that this new form has good shelf life (kinetic trapping of the unstable form).

[5] = cited from earlier work
[6] = room temperature; cited from earlier work

NC(=O)N1c2ccccc2C=Cc2ccccc21 [carbamazepine]
elimination half-life of unchanged carbamazepine in the plasma [1]: approximately 36 hours | long-term toxicity finding [2]: potential carcinogenic risk

NC(=O)N1c2ccccc2C=Cc2ccccc21 [new polymorph, carbamazepine]
phase transitions by differential scanning calorimetry [3]: absence of phase transitions below 184 °C | phase transformation under pressure [4]: not taking place

CC(=O)Nc1ccc(O)cc1 [orthorhombic polymorph, 4-acetamidophenol]
solubility relative to the monoclinic form [5]: more soluble

NC(=O)N1c2ccccc2C=Cc2ccccc21 [trigonal form, carbamazepine]
solid form stability in solvent [6]: undergoes solvent-mediated conversion to the monoclinic crystal
